Measured values from US9593108B2, “Compounds and methods for antiviral treatment” (PTC Therapeutics, Inc., priority 2009, dated 2017).

Tests used:
[1] = tested on: HCV replicon RNA (GenBank Accession No. AJ242654); experiment: HCV Replicon Assay (replicon RNA reduction and/or Fluc reporter signal); format: cell-based, Hepatitis C virus; conditions: Hepatitis C virus, 72 h, replicon-containing cells cultured with test compound for up to 3 days
How it was run: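 IC50 values mostly reflect the drop in replicon RNA, though Fluc reporter signal may also be used. Compound incubated with cells carrying the bicistronic replicon for as long as 3 days; interferon served as positive control.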

| SMILES | IC50 [1] | melting point |
| --- | --- | --- |
| Cc1ccc2c(C#N)c(-c3ncc(S(=O)(=O)N[C@@H](C)C(F)(F)F)cn3)n(C3CCC3)c2n1 [Cpd 137, 2-(3-cyano-1-cyclobutyl-6-methyl-1H-pyrrolo[2,3-b]pyridin-2-yl)-N-[(2S)-1,1,1-trifluoropropan-2-yl]pyrimidine-5-sulfonamide] | < 500 nM | 207 to 212 °C |
| CCc1cnc2c(c1)c(C#N)c(-c1ccc(S(=O)(=O)N[C@@H](C)C(F)(F)F)cn1)n2-c1ncc(F)cn1 [Cpd 473, 6-[3-cyano-5-ethyl-1-(5-fluoropyrimidin-2-yl)-1H-pyrrolo[2,3-b]pyridin-2-yl]-N-[(2S)-1,1,1-trifluoropropan-2-yl]pyridine-3-sulfonamide] | < 500 nM | 175 to 177 °C |
| C[C@@H](NS(=O)(=O)c1ccc(-c2c(C#N)c3cc(F)cnc3n2C2CCC2)nc1)C(F)(F)F [Cpd 47, 6-(3-cyano-1-cyclobutyl-5-fluoro-1H-pyrrolo[2,3-b]pyridin-2-yl)-N-[(2R)-1,1,1-trifluoropropan-2-yl]pyridine-3-sulfonamide] | < 500 nM | 167 to 169 °C |
| Cc1cnc2c(c1)c(C#N)c(-c1cccc(NS(=O)(=O)C(C)C)c1)n2C1CCC1 [Cpd 299, N-[3-(3-cyano-1-cyclobutyl-5-methyl-1H-pyrrolo[2,3-b]pyridin-2-yl)phenyl]propane-2-sulfonamide] | 2000 to 5000 nM | 166 to 173 °C |
| Cc1cnc2c(C#N)c(-c3ccc(S(=O)(=O)N[C@H](C)C(F)(F)F)cn3)n(C3CCCC3)c2c1 [Cpd 171, 6-(3-cyano-1-cyclopentyl-6-methyl-1H-pyrrolo[3,2-b]pyridin-2-yl)-N-[(2R)-1,1,1-trifluoropropan-2-yl]pyridine-3-sulfonamide] | < 500 nM | 215 to 217 °C |
| CCc1cnc2c(c1)c(C#N)c(-c1ccc(S(=O)(=O)NC(C)(C)C)cc1)n2C1CCC1 [Cpd 185, N-tert-butyl-4-(3-cyano-1-cyclobutyl-5-ethyl-1H-pyrrolo[2,3-b]pyridin-2-yl)benzenesulfonamide] | < 500 nM | 190 to 196 °C |
| COc1cnc2c(c1)c(C#N)c(-c1ccc(S(=O)(=O)N[C@@H](C)C(F)(F)F)cn1)n2CC1CC1 [Cpd 66, 6-[3-cyano-1-(cyclopropylmethyl)-5-methoxy-1H-pyrrolo[2,3-b]pyridin-2-yl]-N-[(2S)-1,1,1-trifluoropropan-2-yl]pyridine-3-sulfonamide] | < 500 nM | 136 to 140 °C |
| C[C@H](NS(=O)(=O)c1ccc(-c2c(C#N)c3cc(C4CC4)cnc3n2C2CCCC2)nc1)C(F)(F)F [Cpd 250, 6-(3-cyano-1-cyclopentyl-5-cyclopropyl-1H-pyrrolo[2,3-b]pyridin-2-yl)-N-[(2S)-1,1,1-trifluoropropan-2-yl]pyridine-3-sulfonamide] | < 500 nM | 157 to 167 °C |
| N#Cc1cnc2c(c1)c(C#N)c(-c1ccc(S(=O)(=O)NC3(C(F)(F)F)CC3)cn1)n2C1CCC1 [Cpd 111, 6-(3,5-dicyano-1-cyclobutyl-1H-pyrrolo[2,3-b]pyridin-2-yl)-N-[1-(trifluoromethyl)cyclopropyl]pyridine-3-sulfonamide] | < 500 nM | 207 to 208 °C |
| C[C@H](NS(=O)(=O)c1ccc(-c2c(C#N)c3cc(C(F)(F)F)cnc3n2CC2CC2)nc1)C(F)(F)F [Cpd 295, 6-[3-cyano-1-(cyclopropylmethyl)-5-(trifluoromethyl)-1H-pyrrolo[2,3-b]pyridin-2-yl]-N-[(2S)-1,1,1-trifluoropropan-2-yl]pyridine-3-sulfonamide] | < 500 nM | 193 to 195 °C |
| COc1ccc2c(n1)c(C#N)c(-c1ncc(S(=O)(=O)NC(CF)CF)cn1)n2C1CCC1 [Cpd 19, 2-(3-cyano-1-cyclobutyl-5-methoxy-1H-pyrrolo[3,2-b]pyridin-2-yl)-N-(1,3-difluoropropan-2-yl)pyrimidine-5-sulfonamide] | 2000 to 5000 nM | 241 to 243 °C |
| Cc1cnc2c(C#N)c(-c3ccc(S(=O)(=O)NC(CF)CF)cn3)n(C3CCC3)c2c1 [Cpd 212, 6-(3-cyano-1-cyclobutyl-6-methyl-1H-pyrrolo[3,2-b]pyridin-2-yl)-N-(1,3-difluoropropan-2-yl)pyridine-3-sulfonamide] | < 500 nM | 219 to 221 °C |
| N#Cc1c(-c2ncc(S(=O)(=O)NC(CF)CF)cn2)n(C2CCCC2)c2ncc(Cl)cc12 [Cpd 17, 2-(5-chloro-3-cyano-1-cyclopentyl-1H-pyrrolo[2,3-b]pyridin-2-yl)-N-(1,3-difluoropropan-2-yl)pyrimidine-5-sulfonamide] | 500 to 2000 nM | 247 to 248 °C |
| N#Cc1c(-c2ccc(S(=O)(=O)NC3(C(F)(F)F)CC3)cn2)n(C2CCCCC2)c2ncc(C(F)(F)F)cc12 [Cpd 419, 6-[3-cyano-1-cyclohexyl-5-(trifluoromethyl)-1H-pyrrolo[2,3-b]pyridin-2-yl]-N-[1-(trifluoromethyl)cyclopropyl]pyridine-3-sulfonamide] | < 500 nM | 192 to 193 °C |
| CC(C)(C)NS(=O)(=O)c1ccc(-c2c(C#N)c3cc(Cl)cnc3n2-c2nccs2)nc1 [Cpd 515, N-tert-butyl-6-[5-chloro-3-cyano-1-(1,3-thiazol-2-yl)-1H-pyrrolo[2,3-b]pyridin-2-yl]pyridine-3-sulfonamide] | < 500 nM | 216 to 218 °C |
| C[C@H](NS(=O)(=O)c1ccc(-c2c(C#N)c3cc(C4CC4)cnc3n2-c2cnccn2)nc1)C(F)(F)F [Cpd 344, 6-[3-cyano-5-cyclopropyl-1-(pyrazin-2-yl)-1H-pyrrolo[2,3-b]pyridin-2-yl]-N-[(2S)-1,1,1-trifluoropropan-2-yl]pyridine-3-sulfonamide] | < 500 nM | 219 to 221 °C |
| CCc1cnc2c(c1)c(C#N)c(-c1ccc(S(=O)(=O)NC3CCC3)cn1)n2C1CCC1 [Cpd 194, 6-(3-cyano-1-cyclobutyl-5-ethyl-1H-pyrrolo[2,3-b]pyridin-2-yl)-N-cyclobutylpyridine-3-sulfonamide] | < 500 nM | 168 to 177 °C |
| Cc1cnc2c(c1)c(C#N)c(-c1ccc(S(=O)(=O)N[C@@H](C)C(F)(F)F)cn1)n2CC1CCC1 [Cpd 496, 6-[3-cyano-1-(cyclobutylmethyl)-5-methyl-1H-pyrrolo[2,3-b]pyridin-2-yl]-N-[(2S)-1,1,1-trifluoropropan-2-yl]pyridine-3-sulfonamide] | < 500 nM | 135 to 139 °C |
| CC(C)(NS(=O)(=O)c1ccc(-c2c(C(N)=O)c3cc(C(F)(F)F)cnc3n2C2CCC2)cc1)C(F)(F)F [Cpd 401, 1-cyclobutyl-5-(trifluoromethyl)-2-{4-[(1,1,1-trifluoro-2-methylpropan-2-yl)sulfamoyl]phenyl}-1H-pyrrolo[2,3-b]pyridine-3-carboxamide] | < 500 nM | 239 to 241 °C |
| Cc1cnc2c(C#N)c(-c3ccc(S(=O)(=O)N[C@H](C)C(F)(F)F)cc3)n(C3CCCC3)c2c1 [Cpd 181, 4-(3-cyano-1-cyclopentyl-6-methyl-1H-pyrrolo[3,2-b]pyridin-2-yl)-N-[(2R)-1,1,1-trifluoropropan-2-yl]benzenesulfonamide] | < 500 nM | 281 to 283 °C |
